{"source": "ChEMBL document CHEMBL1944620", "about": "“Discovery of non-oxime reactivators using an in silico pharmacophore model of oxime reactivators of OP-inhibited acetylcholinesterase” (Eur J Med Chem, 2012)", "data": [{"tested_on": "Anguilliformes", "test": "Reactivation of DFP-inhibited eel AChE assessed as reactivation efficacy by spectrophotometry", "units": {"Activity": "mmol⁻¹ min⁻¹"}, "values": [{"smiles": "FC(F)(F)c1ccnc(Oc2ccc(/C=N/NC(=S)Nc3cc(Cl)ccc3Cl)cc2)n1", "Activity": 53.6}, {"smiles": "OC(CNCCNc1nccc(C(F)(F)F)n1)Cn1ccc2ccccc21", "note": "(centres undefined)", "Activity": 57}, {"smiles": "OC(CNCCNc1nccc(C(F)(F)F)n1)CSc1ccccc1", "note": "(centres undefined)", "Activity": 91.1}, {"smiles": "Cc1ccc(S(=O)(=O)NC(=O)NCCCNC(=O)OC(C)(C)C)cc1", "Activity": 76}, {"smiles": "COc1cccc(C(=O)Oc2c(Br)cc(Br)cc2/C=N/NC(=O)CNC(=O)c2ccc(OC)c(OC)c2)c1", "Activity": 56.2}, {"smiles": "OC(CNCCNc1ccc(C(F)(F)F)cn1)COc1ccccc1", "note": "(centres undefined)", "Activity": 20.6}, {"smiles": "O=C(Nc1cc(F)cc(F)c1)N1CCCN(c2ncc(C(F)(F)F)cc2Cl)CC1", "Activity": 80.7}, {"smiles": "C[n+]1ccccc1C=NO", "Activity": 2.61}, {"smiles": "COc1ccc(/C=C(/NC(=O)c2ccccc2)C(=O)N/N=C\\c2cc(Br)c(OCc3ccccc3Cl)c(OC)c2)cc1", "Activity": 673}, {"smiles": "OC(CNCCNc1nccc(C(F)(F)F)n1)COc1ccccc1", "note": "(centres undefined)", "Activity": 26.3}, {"smiles": "O=[N+]([O-])c1ccc(N2CCCN(C(=S)Nc3ccc(F)cc3Br)CC2)nc1", "Activity": 10.7}, {"smiles": "O=[N+]([O-])c1ccc(OCC(O)CNCCNc2nccc(C(F)(F)F)n2)cc1", "note": "(centres undefined)", "Activity": 212}, {"smiles": "COc1cc(/C=N/NC(=O)c2ccccc2NC(C)=O)cc(Br)c1OCc1ccccc1Cl", "Activity": 33.1}, {"smiles": "OC(COc1ccc(Cl)c(Cl)c1)CN1CCN(c2nc3ccc(Cl)cc3s2)CC1", "note": "(centres undefined)", "Activity": 25.1}, {"smiles": "COc1ccc(CCNCC(O)Cn2ccc3ccccc32)cc1OC", "note": "(centres undefined)", "Activity": 79.6}, {"smiles": "S=C(NC1CCCCCCC1)N1CCCN(c2nc3ccc(Cl)cc3s2)CC1", "Activity": 26.7}, {"smiles": "OC(CNCCNc1nccc(C(F)(F)F)n1)COc1ccc(Cl)c(Cl)c1", "note": "(centres undefined)", "Activity": 75.2}, {"smiles": "FC(F)(F)c1ccnc(NCCNC(=S)NCc2ccco2)n1", "Activity": 11}, {"smiles": "CC(CO)(CO)NCC(O)COc1ccc(OC(F)(F)F)cc1", "note": "(centres undefined)", "Activity": 73}, {"smiles": "OC(CNCCNc1nccc(C(F)(F)F)n1)CSc1ccc(F)cc1", "note": "(centres undefined)", "Activity": 30.2}, {"smiles": "O=C1CCC(=O)N1c1ccc(S(=O)(=O)N2CCN(c3nccc(C(F)(F)F)n3)CC2)cc1", "Activity": 48.4}, {"smiles": "Cc1nc(-c2ccccn2)nc(N2CCN(CCO)CC2)c1Cl", "Activity": 13.9}, {"smiles": "COc1cc(C(=O)Oc2c(Br)cc(Br)cc2/C=N/NC(=O)C(O)(c2ccccc2)c2ccccc2)cc(OC)c1OC", "Activity": 39.9}, {"smiles": "OC1CCN(CC(O)COc2ccc(Cl)c(Cl)c2)CC1", "note": "(centres undefined)", "Activity": 34.3}, {"smiles": "O=C(Nc1ccc(Cl)cc1)N1CCCN(c2ccc(C(F)(F)F)cc2[N+](=O)[O-])CC1", "Activity": 101}, {"smiles": "Cc1cc(C)cc(NC(=O)N2CCCN(c3ncccc3[N+](=O)[O-])CC2)c1", "Activity": 77.2}, {"smiles": "COc1ccc(C2NCCc3c2[nH]c2ccc(OCc4ccccc4)cc32)cc1COc1c(Br)cc(Br)cc1Br", "note": "(centres undefined)", "Activity": 102}, {"smiles": "CCOC(=O)c1cc(C#N)c(C)nc1N1CCN(S(=O)(=O)c2ccccc2)CC1", "Activity": 24.7}, {"smiles": "COc1cc(/C=N/NC(=O)c2cnc3ccccc3c2)cc(Br)c1OCc1ccccc1Cl", "Activity": 13}, {"smiles": "CC(C)(C)OC(=O)N1CCCN(C(=S)Nc2ccccc2N2CCOCC2)CC1", "Activity": 65.9}, {"smiles": "COc1cc(/C=N/NC(=O)c2ccc(N)cc2)cc(Br)c1OCc1ccccc1Cl", "Activity": 214}, {"smiles": "OC(CNCCNc1nccc(C(F)(F)F)n1)COc1cccc(C(F)(F)F)c1", "note": "(centres undefined)", "Activity": 38}, {"smiles": "CCOC(=O)c1cc(-c2nc(C(=O)NN)cs2)c(C)nc1C(F)(F)F", "Activity": 156}, {"smiles": "OC(CNCCNc1nccc(C(F)(F)F)n1)COc1ccc(OC(F)(F)F)cc1", "note": "(centres undefined)", "Activity": 34.4}, {"smiles": "OC(CNCCNc1ccc(C(F)(F)F)cn1)CSc1ccc(F)cc1", "note": "(centres undefined)", "Activity": 71.6}]}, {"tested_on": "Anguilliformes", "test": "Reactivation of DFP-inhibited eel AChE by spectrophotometry relative to 2-PAM", "values": [{"smiles": "O=[N+]([O-])c1ccc(N2CCCN(C(=S)Nc3ccc(F)cc3Br)CC2)nc1", "Ratio": "< 10"}, {"smiles": "FC(F)(F)c1ccnc(NCCNC(=S)NCc2ccco2)n1", "Ratio": "< 10"}, {"smiles": "Cc1nc(-c2ccccn2)nc(N2CCN(CCO)CC2)c1Cl", "Ratio": "< 10"}, {"smiles": "COc1cc(/C=N/NC(=O)c2cnc3ccccc3c2)cc(Br)c1OCc1ccccc1Cl", "Ratio": "< 10"}]}]}
